# Laboratory results reported in patent US20150118231A1, “APOE4 ANTIBODIES FOR TREATMENT OF NEURODEGENERATIVE CONDITIONS” (RAMOT AT TEL-AVIV UNIVERSITY LTD., priority 2012, published 2015).
# Legend:
# [1] = system: mouse model of AD; settings: oral administration; cited from earlier work
# [2] = system: apoE3 and apoE4 mice; test: Bexarotene by gavage: fear conditioning test; format: in vivo; settings: 100 mg per kg per day by gavage; mild electric shock
# [3] = system: apoE3 and apoE4 mice; test: Bexarotene by gavage: Morris swim test; format: in vivo; settings: 100 mg per kg per day by gavage
# From the text: Next, the mice were further investigated following removal of the platform from the water arena.
# [4] = system: apoE3 and apoE4 mice; test: Bexarotene by gavage: object recognition test; settings: 100 mg per kg per day by gavage; apoE4 mice prefer the novel object, similarly to apoE3 mice
compound,measurement,setting,value
C=C(c1ccc(C(=O)O)cc1)c1cc2c(cc1C)C(C)(C)CCC2(C)C [Bexarotene],apoE synthesis,[1],enhanced
same,clearance of soluble Aβ,[1],within hours
same,cognitive deficits,[1],rapid reversal
same,neural circuit function,[1],improved
same,time to reduced Aβ plaque area,[1],≤ 72 h
same,"fear conditioning, freezing time: difference between apoE3 and apoE4 mice",[2],abolished
same,"Morris swim test, time to reach the platform, apoE4 mice","[3]; days 1-4, rendered similar to apoE3 mice",improves
same,"Morris swim test, time searching for the missing platform: difference between apoE3 and apoE4 mice",[3]; platform removed,abolished
same,object recognition impairment in apoE4 mice (time spent near the novel object),[4],reversed
